Reference: patent US12642809B2, “Fucosylation and immune modulation in cancer” (H. LEE MOFFITT CANCER CENTER AND RESEARCH INSTITUTE, INC., priority 2019, dated 2026)
“Also recorded” adds a separate entry of the source.

How the values were obtained:
[1] = test system: HLA-DRB1; test: qRT-PCR and immunoblot of HLA-DRB1 in melanoma cells; type: cell-based, human; settings: 250 μM, panel of melanoma cell lines
Method: Cells were lysed on ice in RIPA lysis buffer (25 mM Tris-HCl pH 7.6, 150 mM NaCl, 5 mM EDTA, 1% NP-40 or 1% Triton X-100, 1% sodium deoxycholate, 0.1% SDS in diH2O+protease and phosphatase inhibitors (ThermoFisher Scientific (Waltham, MA)), briefly sonicated, pelleted, and the resulting lysates were normalized by protein concentration using DC assay (BioRad Laboratories, (Hercules, CA)). The indicated samples were subjected to (12%) SDS-PAGE and immunoblot analysis using the indicated antibodies. Immunoblot imaging and analysis was performed using either an Odyssey FC scanner and ImageStudio (LiCor Biosciences, Lincoln, NE) or film.
RNA from cells subjected to the indicated treatments was extracted using Gene Elute Mammalian Total RNA Extraction System (Millipore Sigma (St. Louis, MO)). RNA was reversed transcribed to cDNA using High-Capacity cDNA Reverse Transcription Kit (ThermoFisher Scientific (Waltham, MA)). qRT-PCR analysis was performed using FastStart Universal SYBR Green Master Mix (Rox) (Roche Diagnostics, (Indianapolis, IN)) using a BioRad CFX96 Real-time system (BioRad Laboratories, (Hercules, CA)). The qRT-PCR cycles used were as follows: 95° C. for 10 min, 35 cycles of 95° C. for 15 seconds, 55° C. for 60 seconds, and 72° C. for 30 seconds. Expression of the indicated genes was normalized to histone H3A expression. […]

[2] = test system: SM1 tumors; test: CD4+/CD8+ T cell immunodepletion, SM1 model; type: in vivo, mouse; settings: CD4+ T cell-depleted mice
Method: Single-cell suspensions from tumor and spleen tissue were stained with Live/Dead Zombie NIR (Biolegend, (San Diego, CA)) at 1:1,000 in PBS for 20 min. Cell suspensions were spun down and stained with the following antibodies: APC anti-mouse CD3 (0.5 μg/mL, BD Biosciences (San Jose, CA)), Pacific Blue anti-mouse CD4 ([…], BD Biosciences (San Jose, CA)), BV785 anti-mouse CD8 (0.5 μg/mL, BD Biosciences (San Jose, CA)), PerCP anti-mouse CD25 ([…], BD Biosciences (San Jose, CA)), FITC anti-mouse F4/80 (0.5 μg/mL, BD Biosciences (San Jose, CA)), PeCy7 anti-mouse CD11c (0.5 μg/mL, BD Biosciences (San Jose, CA)), PE anti-mouse NK1.1 (0.5 μg/mL, BD Biosciences (San Jose, CA)), PE anti-mouse DX5 (0.5 μg/mL, BD Biosciences (San Jose, CA)), PerCP-Cy5.5 anti-mouse CD11b (0.5 μg/mL, BD Biosciences (San Jose, CA)). After staining, the cells were washed and fixed (2% formaldehyde), followed by another wash and flow cytometric analysis. The compensation controls were prepared using 0.5 μg/ml. of each antibody with beads UltraComp eBeads™, (ThermoFisher Scientific (Waltham, MA)). […] Flow cytometric data was further analyzed using FlowJo™ analysis software (BD Biosciences (San Jose, CA)). TIL profiles were determined as a measure of TIL subpopulations per gram of tumor tissues or % of total splenocytes. […]

[3] = test system: MDSCs; test: IFNγ of T cells co-cultured with pre-treated MDSCs; type: cell-based, BalbC mice; settings: CD3/CD28 bead activation
From the text: Shown are IFNγ production/secretion levels of combined bulk CD4^+ and CD8^+ T cells from BalbC mice treated with either DMSO (black column) or L-fucose (red column) or co-cultured with MDSCs pre-treated with DMSO (aquamarine column) or with L-fucose (purple column). The T cells were activated using CD3/CD28 beads.

[4] = test system: Leukocyte Adhesion Deficiency II; settings: L-fuc supplementation; cited from earlier work
[5] = test system: SW1 tumors; test: H2K1/EB1 knockdown and EB1 fucomutant reconstitution SW1 tumor model; type: in vivo, mouse; settings: for L-fuc-triggered tumor suppression: EB1 (IEβ) knockdown tumors (shEB1, shEB1+EV)
Method: Single-cell suspensions from tumor and spleen tissue were stained with Live/Dead Zombie NIR (Biolegend, (San Diego, CA)) at 1:1,000 in PBS for 20 min. Cell suspensions were spun down and stained with the following antibodies: APC anti-mouse CD3 (0.5 μg/mL, BD Biosciences (San Jose, CA)), Pacific Blue anti-mouse CD4 ([…], BD Biosciences (San Jose, CA)), BV785 anti-mouse CD8 (0.5 μg/mL, BD Biosciences (San Jose, CA)), PerCP anti-mouse CD25 ([…], BD Biosciences (San Jose, CA)), FITC anti-mouse F4/80 (0.5 μg/mL, BD Biosciences (San Jose, CA)), PeCy7 anti-mouse CD11c (0.5 μg/mL, BD Biosciences (San Jose, CA)), PE anti-mouse NK1.1 (0.5 μg/mL, BD Biosciences (San Jose, CA)), PE anti-mouse DX5 (0.5 μg/mL, BD Biosciences (San Jose, CA)), PerCP-Cy5.5 anti-mouse CD11b (0.5 μg/mL, BD Biosciences (San Jose, CA)). After staining, the cells were washed and fixed (2% formaldehyde), followed by another wash and flow cytometric analysis. The compensation controls were prepared using 0.5 μg/ml. of each antibody with beads UltraComp eBeads™, (ThermoFisher Scientific (Waltham, MA)). All samples were subject to flow cytometric analysis using a LSR Flow Cytometer (BD Biosciences (San Jose, CA)). Flow cytometric data was further analyzed using FlowJo™ analysis software (BD Biosciences (San Jose, CA)). TIL profiles were determined as a measure of TIL subpopulations per gram of tumor tissues or % of total splenocytes.
SW1 mouse melanoma cells expressing either shNT (non-targeting shRNA), shH2K1, shEB1, shNT+EV, shEB1+EV, shEB1+EB1 WT, or shEB1+EB1 N46G were injected into syngeneic C3H/HeN female mice. After approximately 7 days, when the mice tumors reached ˜150 mm^3, the mice were either supplemented with or without 100 mM L-fucose (Biosynth (Oak Terrace, IL)) via drinking water, which was provided ad libitum. When the tumors reached ˜2 cm^3, the animals were sacrificed, and the tumors were either processed for flow cytometric profiling or for histological analysis as indicated

C[C@H](O)[C@@H](O)[C@@H](O)[C@H](O)C=O [L-fucose]
HLA-DRB1 mRNA and protein levels [1]: neither HLA-DRB1 mRNA nor protein levels were altered | L-fuc-triggered suppression of SM1 tumors and TIL increases [2]: abrogated | MDSC-mediated suppression of T cell IFNγ production/secretion [3]: completely reverts MDSC-mediated T cell suppression | co-morbidities [4]: without significant co-morbidities | symptoms of the disorder [4]: can be mitigated | L-fuc-triggered tumor suppression [5]: abrogates | L-fuc-triggered tumor suppression ([5]; listed as L-fuc): completely abrogated | reduced tumor growth ([5]; control knockdown (shNT / shNT+EV) tumors): ~60% | tumor suppression ([5]; shEB1+N46G tumors): did not suppress | reduced tumor growth ([5]; shEB1+WT tumors): > 60% | L-fuc-triggered induction of total TIL counts and subpopulations ([5]; shEB1 tumors): reduced; also recorded: abrogated | TIL induction by L-fuc ([5]; shEB1 tumors reconstituted with EB1 WT): restored | TIL induction by L-fuc ([5]; shEB1 tumors reconstituted with EV or EB1 N46G): did not
